The text below walks through data of patent US9611263B2, “Compounds that modulate intracellular calcium” (CALCIMEDICA, INC., priority 2013, dated 2017).

Where only a bound is given, the exact number is not on record here.

The target of one assay is STIM1 and Orai1 (Homo sapiens, UniProt Q96D31). The note with it: HEK293 cells co-expressing STIM1 and Orai1; cited from earlier work.
The subject of a further assay is RBL-2H3 cells. In words: Fluorescence-based assay of store-operated calcium entry in RBL-2H3 cells. The assay is classed as cell-based, rat. To be noted: Rattus norvegicus, RBL-2H3; thapsigargin; 50% inhibition of Upslope; read-out: RBL-2H3 (IC50, μmol). In outline: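 Fluo-4-loaded RBL-2H3 cells in Ca2+-free HBSS got compound for 5 min at RT, then thapsigargin (1 μM final, from 5.5× stock) for 25 min. Calcium (1 mM final, from 12× stock) was then added and fluorescence read by FLIPR; Upslope = signal 7 s after addition minus baseline, IC50 = 50% Upslope inhibition.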

In the next assay the target is T1, Orai1/STIM1 (Homo sapiens, UniProt Q96D31).
T1 construct: expressed in transfected cells
T1 sequence (Q96D31 whole entry): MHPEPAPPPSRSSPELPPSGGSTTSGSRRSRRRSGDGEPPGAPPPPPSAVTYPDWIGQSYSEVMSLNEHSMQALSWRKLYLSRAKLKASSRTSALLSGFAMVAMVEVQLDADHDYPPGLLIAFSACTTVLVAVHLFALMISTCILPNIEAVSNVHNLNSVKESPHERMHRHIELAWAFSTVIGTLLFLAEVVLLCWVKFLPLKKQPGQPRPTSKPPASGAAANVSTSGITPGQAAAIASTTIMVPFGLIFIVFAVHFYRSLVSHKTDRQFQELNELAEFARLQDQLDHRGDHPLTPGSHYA
Briefly: Fluorescence-based assay of store-operated calcium entry in Orai1/STIM1 stable cells. Type of assay: cell-based. To be noted: HEK-293 cells stably expressing human STIM1 and Orai1; 50% inhibition of Peak-Basal fluorescence signal; read-out: Orai1/STIM1 (IC50, μmol). In outline: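 HEK-293 cells stably co-expressing human STIM1 and Orai1, loaded with 1.5 μM fluo-4-AM for 1 h at RT. Compounds were preincubated 30 min at RT in Ca²⁺-free HBSS, then entry was triggered with a 10× CaCl2 (10 mM) addition and read on FLIPR. IC50 is 50% inhibition of peak minus basal fluorescence.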

Assay [1] concerns Jurkat cells. The note with it: cited from earlier work.
Assay [2] has as its system Jurkat cells. To be noted: cited from earlier work. The source holds these as a separate data set.

STIM1 and Orai1, sequence (Q96D31 whole entry, species assumed): as the sequence (Q96D31 whole entry) above

Regarding `NCCOB(c1ccccc1)c1ccccc1` [2-aminoethoxydiphenylborate], the “store-operated Ca2+ entry” value at STIM1 and Orai1 is recorded as “completely blocked”.
Consider `Cc1nn(-c2nccs2)cc1-c1ccc(NC(=O)c2c(F)cccc2F)cc1` [Example 1, 2,6-difluoro-N-(4-(3-methyl-1-(thiazol-2-yl)-1H-pyrazol-4-yl)phenyl)benzamide], for which the IC50 in the assay on RBL-2H3 cells and on Orai1/STIM1 was under 600 nM each time.
`O=C(Nc1cnc(-c2cn(-c3nccs3)nc2C2CC2)cn1)c1ccccc1F` [Example 50, N-(5-(3-cyclopropyl-1-(thiazol-2-yl)-1H-pyrazol-4-yl)pyrazin-2-yl)-2-fluorobenzamide]: the IC50 in the assay on RBL-2H3 cells and on Orai1/STIM1 was under 600 nM each time.
On to `Cc1cn(-c2nccs2)nc1-c1ccc(NC(=O)c2c(F)cccc2F)cc1F` [Example 66, 2,6-difluoro-N-(3-fluoro-4-(4-methyl-1-(thiazol-2-yl)-1H-pyrazol-3-yl)phenyl)benzamide], for which the IC50 was under 600 nM in the assay on RBL-2H3 cells and over 1200 nM at Orai1/STIM1.
In the same order, the values of `Cc1nn(-c2nccs2)cc1-c1ccc(NC(=O)c2ccccc2OC(F)F)s1` [Example 72, 2-(difluoromethoxy)-N-(5-(3-methyl-1-(thiazol-2-yl)-1H-pyrazol-4-yl)thiophen-2-yl)benzamide] are over 1200 nM and 600 to 1200 nM.
The like results for `CCc1nn(-c2nccs2)cc1-c1ccc(NC(=O)c2c(F)cccc2F)cc1` [Example 6, N-(4-(3-ethyl-1-(thiazol-2-yl)-1H-pyrazol-4-yl)phenyl)-2,6-difluorobenzamide] were, in that order, under 600 nM and under 600 nM.
In the case of `Cc1nnsc1C(=O)Nc1ccc(-n2nc(C(F)(F)F)cc2C(F)(F)F)cc1` [BTP-2], the SOCE result in the assay on Jurkat cells [1] is “inhibits”. In the assay with Jurkat cells [2], the proliferation entry was “inhibits”.
Regarding `Cc1nn(-c2nccs2)cc1-c1ccc(NC(=O)c2c(F)cc(F)cc2F)cc1F` [Example 14, 2,4,6-trifluoro-N-(3-fluoro-4-(3-methyl-1-(thiazol-2-yl)-1H-pyrazol-4-yl)phenyl)benzamide], the IC50 in the assay with RBL-2H3 cells and at Orai1/STIM1 was under 600 nM each time.
With `Cc1nn(-c2nccs2)cc1-c1cnc(NC(=O)c2c(F)ccc(F)c2F)s1` [Example 67, 2,3,6-trifluoro-N-(5-(3-methyl-1-(thiazol-2-yl)-1H-pyrazol-4-yl)thiazol-2-yl)benzamide], the IC50 in the assay with RBL-2H3 cells was under 600 nM; on Orai1/STIM1, 600 to 1200 nM.
In the same order, the values of `Cc1nn(-c2nccs2)cc1-c1ccc(NC(=O)c2c(F)ccc(F)c2F)nc1` [Example 20, 2,3,6-trifluoro-N-(5-(3-methyl-1-(thiazol-2-yl)-1H-pyrazol-4-yl)pyridin-2-yl)benzamide] are under 600 nM and under 600 nM.
The like results for `Cc1cccc(F)c1C(=O)Nc1ccc(-c2cn(-c3nccs3)nc2C)cc1` [Example 3, 2-fluoro-6-methyl-N-(4-(3-methyl-1-(thiazol-2-yl)-1H-pyrazol-4-yl)phenyl)benzamide] were, in that order, under 600 nM and under 600 nM.
For the compound `CCc1nn(-c2nccs2)cc1-c1ccc(NC(=O)c2ccccc2F)s1` [Example 74, N-(5-(3-ethyl-1-(thiazol-2-yl)-1H-pyrazol-4-yl)thiophen-2-yl)-2-fluorobenzamide], the IC50 in the assay on RBL-2H3 cells and on Orai1/STIM1 was under 600 nM in each case.
On to `O=C(Nc1ccc(-c2cn(-c3nccs3)nc2C2CC2)cn1)c1c(F)cccc1F` [Example 44, N-(5-(3-cyclopropyl-1-(thiazol-2-yl)-1H-pyrazol-4-yl)pyridin-2-yl)-2,6-difluorobenzamide], for which the IC50 in the assay on RBL-2H3 cells and on Orai1/STIM1 was under 600 nM throughout.
Take `O=C(Nc1ccc(-c2cn(-c3nccs3)nc2C2CC2)cn1)c1c(F)ccc(F)c1F` [Example 45, N-(5-(3-cyclopropyl-1-(thiazol-2-yl)-1H-pyrazol-4-yl)pyridin-2-yl)-2,3,6-trifluorobenzamide]: the values for the IC50 in the assay on RBL-2H3 cells and on Orai1/STIM1 were under 600 nM and 600 to 1200 nM, respectively.
The like results for `Cc1cccc(F)c1C(=O)Nc1ccc(-c2cn(-c3nccs3)nc2C)c(F)c1` [Example 12, 2-fluoro-N-(3-fluoro-4-(3-methyl-1-(thiazol-2-yl)-1H-pyrazol-4-yl)phenyl)-6-methylbenzamide] were, in that order, under 600 nM and 600 to 1200 nM.
